Data published in the NIST ThermoML archive (doi:10.1021/acs.jced.6b00139).
Numbers after ± are expanded uncertainties.

Conditions: Liquid, Ebulliometric method (Recirculating still)

In the case of O=CO [formic acid], the “vapor or sublimation pressure” value (388.15 K) is reported as 153.7 ± 1 kPa and the “vapor or sublimation pressure” value (398.15 K) is reported as 200.6 ± 1 kPa.
